The first test deals with T1, Nav 1.7 (Homo sapiens, UniProt Q15858).
T1 construct: expressed in transfected cells
T1 sequence (Q15858 whole entry): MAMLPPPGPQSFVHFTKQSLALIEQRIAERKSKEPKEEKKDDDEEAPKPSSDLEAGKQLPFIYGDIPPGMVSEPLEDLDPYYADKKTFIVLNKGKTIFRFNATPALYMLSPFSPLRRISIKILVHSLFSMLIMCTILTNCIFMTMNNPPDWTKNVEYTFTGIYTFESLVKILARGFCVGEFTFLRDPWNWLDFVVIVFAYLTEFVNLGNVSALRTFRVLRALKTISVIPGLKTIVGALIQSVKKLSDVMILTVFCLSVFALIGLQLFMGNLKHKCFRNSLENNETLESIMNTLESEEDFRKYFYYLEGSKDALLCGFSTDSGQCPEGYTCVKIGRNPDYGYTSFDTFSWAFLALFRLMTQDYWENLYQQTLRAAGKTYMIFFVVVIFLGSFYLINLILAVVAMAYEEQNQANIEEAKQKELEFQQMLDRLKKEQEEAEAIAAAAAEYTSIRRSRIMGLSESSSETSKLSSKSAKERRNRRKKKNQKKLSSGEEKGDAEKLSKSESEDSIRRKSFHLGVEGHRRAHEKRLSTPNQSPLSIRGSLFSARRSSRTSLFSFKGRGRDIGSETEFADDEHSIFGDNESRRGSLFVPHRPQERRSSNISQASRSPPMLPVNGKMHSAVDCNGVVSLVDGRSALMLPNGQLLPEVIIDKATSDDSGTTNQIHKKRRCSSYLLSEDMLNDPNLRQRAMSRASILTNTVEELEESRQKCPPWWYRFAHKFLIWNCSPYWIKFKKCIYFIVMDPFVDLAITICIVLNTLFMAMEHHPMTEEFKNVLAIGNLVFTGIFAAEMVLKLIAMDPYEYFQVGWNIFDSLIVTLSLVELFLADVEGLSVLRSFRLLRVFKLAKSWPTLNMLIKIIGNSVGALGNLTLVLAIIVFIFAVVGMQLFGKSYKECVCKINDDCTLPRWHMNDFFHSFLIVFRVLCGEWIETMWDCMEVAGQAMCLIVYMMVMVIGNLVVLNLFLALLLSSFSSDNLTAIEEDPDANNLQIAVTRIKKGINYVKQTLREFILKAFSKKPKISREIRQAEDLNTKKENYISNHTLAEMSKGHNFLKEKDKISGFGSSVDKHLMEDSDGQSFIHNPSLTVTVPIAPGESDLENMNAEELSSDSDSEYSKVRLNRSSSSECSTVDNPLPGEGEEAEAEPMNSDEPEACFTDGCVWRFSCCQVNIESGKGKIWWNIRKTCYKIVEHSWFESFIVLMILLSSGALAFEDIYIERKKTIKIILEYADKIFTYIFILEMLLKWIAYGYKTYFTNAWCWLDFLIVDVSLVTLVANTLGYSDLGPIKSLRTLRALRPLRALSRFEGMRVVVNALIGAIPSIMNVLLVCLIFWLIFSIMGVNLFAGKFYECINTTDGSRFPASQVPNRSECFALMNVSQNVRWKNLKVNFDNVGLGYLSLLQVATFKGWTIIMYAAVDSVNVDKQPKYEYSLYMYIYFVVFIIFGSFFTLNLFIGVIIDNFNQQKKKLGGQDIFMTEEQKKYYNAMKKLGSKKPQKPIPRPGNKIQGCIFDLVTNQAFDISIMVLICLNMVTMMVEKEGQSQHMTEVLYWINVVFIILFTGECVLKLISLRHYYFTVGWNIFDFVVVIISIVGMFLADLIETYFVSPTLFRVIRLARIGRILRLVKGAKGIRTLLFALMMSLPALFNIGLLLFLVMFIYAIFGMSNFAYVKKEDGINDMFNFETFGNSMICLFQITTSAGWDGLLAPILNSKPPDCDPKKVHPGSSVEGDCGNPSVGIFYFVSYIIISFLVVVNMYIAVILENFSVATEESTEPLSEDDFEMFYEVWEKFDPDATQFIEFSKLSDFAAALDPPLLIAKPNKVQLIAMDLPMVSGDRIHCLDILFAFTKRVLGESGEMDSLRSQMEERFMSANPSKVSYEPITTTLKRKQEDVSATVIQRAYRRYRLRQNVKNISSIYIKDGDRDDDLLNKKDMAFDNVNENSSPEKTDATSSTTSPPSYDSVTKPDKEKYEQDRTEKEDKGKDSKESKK
In words: Whole-cell voltage clamp electrophysiology, manual patch clamp (marker b in Table of Examples). The class given is cell-based. The settings on record: 10 μM; marker b: Manual patch clamp data. The source says: a.IonWork Quattro data, b=Manual patch clamp data, c=Automated patch clamp data M=Method
Whole-Cell Voltage Clamp Electrophysiology Assay
Patch-clamp electrophysiology is considered the gold standard technique for investigation of ion channel function and pharmacology. Using this method, sodium channel currents can be measured in cells, which stably (or transiently) express the sodium channel subtype of interest. Application of compounds during such experiments provides a functional measure of the activity and potency of compounds affecting the ion channel of interest.
Electrophysiological studies can also be performed using the whole cell configuration of the standard manual patch clamp technique as described in the literature (e.g. Pflugers Arch., 1981, 391(2), 85-100). In this assay, cells that express the voltage-gated sodium channel protein of interest are exposed to the drugs by conventional microperfusion systems, or by a home-built perfusion system. A suitable voltage stimulus protocol is used to activate the voltage-gated sodium channels.
A suitable voltage stimulus protocol is used to activate voltage-gated sodium channel proteins of interest. A typical stimulus protocol may consist of sweeps of sequential voltage pulses starting from a holding potential (i.e. −65 mV), to a more positive and depolarising test pulse potential (i.e. −10 mV) and finally to a more negative and hyperpolarising potential (i.e. −100 mV). According to the biophysics of the voltage-gated ion channel of interest and interest in channel configuration the voltages and durations of the pulses as well as the overall frequency of sweeps applied might vary. Accordingly, a stimulus protocol was designed to assess compounds due to their potential to block NaV1.7 channels primarily in inactivated state. Selectivity over other voltage-gated sodium channel members was assessed by protocols that reflect the native function of the channels (i.e. heart rate or firing of neurons).
Electrophysiological studies can also be performed using the whole cell configuration of the standard manual patch clamp technique as described in the literature (e.g. Pflugers Arch., 1981, 391(2), 85-100). In this assay, cells that express the human voltage-gated sodium channel protein of interest are exposed to the drugs by conventional microperfusion systems, or by a home-built perfusion system. A suitable voltage stimulus protocol is used to activate the voltage-gated sodium channels. A suitable voltage stimulus protocol may consist of sequential voltage pulses from a holding potential, each first hyperpolarizing the cell, then depolarizing the channels for a brief period. A particularly suitable holding potential may be a voltage allowing a fraction of channels to remain in an inactivated state, like −60 mV. A suitable hyperpolarizing voltage and duration may be −120 mV for 100 ms, and depolarization voltage and duration may be −20 mV for 25 ms, and a suitable frequency of pulses may be 0.1 Hz, but may also have other parameters. Accordingly, a stimulus protocol was designed to assess compounds due to their potential to block NaV1.7 channels primarily in inactivated state. Selectivity over other voltage-gated sodium channel members was assessed by protocols that reflect the native function of the channels (i.e. heart rate or firing of neurons).
On to `CN(c1ccccc1)c1nc(N)nc(-c2noc(-c3cccc(Cl)c3)n2)n1` [Example 35, 6-[5-(3-Chloro-phenyl)-[1,2,4]oxadiazol-3-yl]-N-methyl-N-phenyl-[1,3,5]triazine-2,4-diamine], for which the “Nav 1.7 activity, % at 10 μM” value is recorded as 44% (10 μM)^b.

The same test, now with this note: marker b = Manual patch clamp data; read-out: Nav 1.7 activity.
`CN(c1ccccc1)c1nc(N)nc(-c2noc(-c3ncccn3)n2)n1` [Example 278, 2-N-methyl-2-N-phenyl-6-[5-(pyrimidin-2-yl)-1,2,4-oxadiazol-3-yl]-1,3,5-triazine-2,4-diamine]: the IC50 is 1060 nM.

For the molecule `Nc1nc(Nc2ccccc2)nc(-c2noc(-c3ccc(COCC(F)(F)F)nc3)n2)n1` [Example 303, 2-N-phenyl-6-(5-{6-[(2,2,2-trifluoroethoxy)methyl]pyridin-3-yl}-1,2,4-oxadiazol-3-yl)-1,3,5-triazine-2,4-diamine], the IC50 was 24 nM. On to `CN(c1ccccc1)c1nc(N)nc(-c2noc(-c3ccn(CC(F)(F)F)n3)n2)n1` [Example 256, 2-N-Methyl-2-N-phenyl-6-{5-[1-(2,2,2-trifluoroethyl)-1H-pyrazol-3-yl]-1,2,4-oxadiazol-3-yl}-1,3,5-triazine-2,4-diamine], for which the IC50 was found to be 815 nM. The same measure, in the same setting: with `CN(c1nc(N)nc(-c2noc(-c3ccc(OCC(F)(F)F)nc3)n2)n1)c1cccc(F)c1F` [Example 411, 2-N-(2,3-difluorophenyl)-2-N-methyl-6-{5-[6-(2,2,2-trifluoroethoxy)pyridin-3-yl]-1,2,4-oxadiazol-3-yl}-1,3,5-triazine-2,4-diamine] the figure was 17 nM. In the case of `Cc1cccc(-c2nc(-c3nc(N)nc(N(C)c4ccccc4)n3)no2)n1` [Example 271, 2-N-methyl-6-[5-(6-methylpyridin-2-yl)-1,2,4-oxadiazol-3-yl]-2-N-phenyl-1,3,5-triazine-2,4-diamine], the IC50 was determined as 945 nM. As for `COc1cnc(-c2nc(-c3nc(N)nc(N(C)c4ccccc4)n3)no2)c(OC)c1` [Example 282, 6-[5-(3,5-Dimethoxypyridin-2-yl)-1,2,4-oxadiazol-3-yl]-2-N-methyl-2-N-phenyl-1,3,5-triazine-2,4-diamine], the IC50 was 308 nM. Same read-out and setting: with `COC1CCN(c2nc(-c3nc(N)nc(Nc4ccccc4)n3)no2)CC1` [Example 238, 6-[5-(4-methoxypiperidin-1-yl)-1,2,4-oxadiazol-3-yl]-2-N-phenyl-1,3,5-triazine-2,4-diamine] the figure was 761 nM. `Nc1nc(Nc2ccccc2)nc(-c2noc(-c3ncccc3F)n2)n1` [Example 346, 6-[5-(3-Fluoropyridin-2-yl)-1,2,4-oxadiazol-3-yl]-2-N-phenyl-1,3,5-triazine-2,4-diamine]: the IC50 amounted to 337 nM.

The same test, now with this note: marker b: Manual patch clamp data; read-out: Nav 1.7 activity.
Consider `CN(c1ccccc1)c1nc(N)nc(-c2noc(-c3ccn[nH]3)n2)n1` [Example 61, N-Methyl-N-phenyl-6-[5-(2H-pyrazol-3-yl)-[1,2,4]oxadiazol-3-yl]-[1,3,5]triazine-2,4-diamine], for which the IC50 is 561 nM. Still for that read-out and setting: with `COCCN(c1ccccc1)c1nc(N)nc(-c2noc(-c3ccco3)n2)n1` [Example 119, 6-(5-Furan-2-yl-[1,2,4]oxadiazol-3-yl)-N-(2-methoxy-ethyl)-N-phenyl-[1,3,5]triazine-2,4-diamine] the figure was 400 nM; with `CN(c1cccc(F)c1)c1nc(N)nc(-c2noc(-c3ccc(OCC4CC4)nc3)n2)n1` [Example 135, 6-{5-[6-(cyclopropylmethoxy)pyridin-3-yl]-1,2,4-oxadiazol-3-yl}-2-N-(3-fluorophenyl)-2-N-methyl-1,3,5-triazine-2,4-diamine], 44 nM; with `CN(c1ccccc1)c1nc(N)nc(-c2noc(-c3ccc(OC4CCCC4)nc3)n2)n1` [Example 13, 6-[5-(6-Cyclopentoxy-pyridin-3-yl)-[1,2,4]oxadiazol-3-yl]-N-methyl-N-phenyl-[1,3,5]triazine-2,4-diamine], 4 nM. On the same count and under the same terms, the figure for `Cc1ccc(N(C)c2nc(N)nc(-c3noc(-c4ccco4)n3)n2)cc1` [Example 4, 6-(5-Furan-2-yl-[1,2,4]oxadiazol-3-yl)-N-methyl-N-(4-methylphenyl)-[1,3,5]triazine-2,4-diamine] is 661 nM. In the case of `Nc1nc(Nc2cc(Cl)ccc2F)nc(-c2noc(-c3ccco3)n2)n1` [Example 108, N-(5-Chloro-2-fluoro-phenyl)-6-(5-furan-2-yl-[1,2,4]oxadiazol-3-yl)-[1,3,5]triazine-2,4-diamine], the IC50 was determined as 235 nM.

As for `Cc1cccc(N(C)c2nc(N)nc(-c3noc(-c4ccco4)n3)n2)c1` [Example 3, 6-(5-Furan-2-yl-[1,2,4]oxadiazol-3-yl)-N-methyl-N-(3-methylphenyl)-[1,3,5]triazine-2,4-diamine], the IC50 came to 272 nM. In the case of `CN(c1ccccc1)c1nc(N)nc(-c2noc(N3CCC(COCC(F)(F)F)CC3)n2)n1` [Example 167, 2-N-Methyl-2-N-phenyl-6-(5-{4-[(2,2,2-trifluoroethoxy)methyl]piperidin-1-yl}-1,2,4-oxadiazol-3-yl)-1,3,5-triazine-2,4-diamine], the IC50 stood at 235 nM.

`CN(c1ccccc1)c1nc(N)nc(-c2noc(-c3ccc(Cl)s3)n2)n1` [Example 12, N-Methyl-6-[5-(5-chloro-thiophen-2-yl)-[1,2,4]oxadiazol-3-yl]-N-phenyl-[1,3,5]triazine-2,4-diamine]: the IC50 amounted to 2320 nM. On the same count and under the same terms, the figure for `CN(c1ccccc1)c1nc(N)nc(-c2noc(-c3ccccc3)n2)n1` [Example 10, N-Methyl-N-phenyl-6-(5-phenyl-[1,2,4]oxadiazol-3-yl)-[1,3,5]triazine-2,4-diamine] is 348 nM; for `CN(c1ccccc1)c1nc(N)nc(-c2noc(-c3cncs3)n2)n1` [Example 52, N-Methyl-N-phenyl-6-(5-thiazol-5-yl-[1,2,4]oxadiazol-3-yl)-[1,3,5]triazine-2,4-diamine] it is 909 nM. Same read-out and setting: with `COc1cccc(F)c1-c1nc(-c2nc(N)nc(N(C)c3ccccc3)n2)no1` [Example 81, 6-[5-(2-Fluoro-6-methoxy-phenyl)-[1,2,4]oxadiazol-3-yl]-N-methyl-N-phenyl-[1,3,5]triazine-2,4-diamine] the figure was 21 nM; with `CN(c1ccccc1)c1nc(N)nc(-c2noc(-c3ccc(Cl)cc3)n2)n1` [Example 36, 6-[5-(4-Chloro-phenyl)-[1,2,4]oxadiazol-3-yl]-N-methyl-N-phenyl-[1,3,5]triazine-2,4-diamine], 165 nM; with `Nc1nc(Nc2cccc(Cl)c2F)nc(-c2noc(-c3ccco3)n2)n1` [Example 111, N-(3-Chloro-2-fluoro-phenyl)-6-(5-furan-2-yl-[1,2,4]oxadiazol-3-yl)-[1,3,5]triazine-2,4-diamine], 54 nM. Still for that read-out and setting: the figure for `CN(c1ccccc1)c1nc(N)nc(-c2noc(-c3ccc(OC(F)(F)F)nc3)n2)n1` [Example 133, 2-N-methyl-2-N-phenyl-6-{5-[6-(trifluoromethoxy)pyridin-3-yl]-1,2,4-oxadiazol-3-yl}-1,3,5-triazine-2,4-diamine] is 635 nM.

For `Nc1nc(Nc2cccc(F)c2)nc(-c2noc(-c3ccco3)n2)n1` [Example 117, N-(3-Fluorophenyl)-6-(5-furan-2-yl-[1,2,4]oxadiazol-3-yl)-[1,3,5]triazine-2,4-diamine], the IC50 is 42 nM. On the same count and under the same terms, with `Nc1nc(Nc2ccccc2)nc(-c2noc(-c3ccco3)n2)n1` [Example 2, 6-(5-Furan-2-yl-[1,2,4]oxadiazol-3-yl)-N-phenyl-[1,3,5]triazine-2,4-diamine] the figure was 91 nM. For `CN(c1ccccc1)c1nc(N)nc(-c2noc(-c3cccs3)n2)n1` [Example 11, N-Methyl-N-phenyl-6-(5-thiophen-2-yl-[1,2,4]oxadiazol-3-yl)-[1,3,5]triazine-2,4-diamine], the IC50 was 216 nM.

`COc1ccccc1-c1nc(-c2nc(N)nc(N(C)c3ccccc3)n2)no1` [Example 25, 6-[5-(2-Methoxy-phenyl)-[1,2,4]oxadiazol-3-yl]-N-methyl-N-phenyl-[1,3,5]triazine-2,4-diamine]: the IC50 was 47 nM.

With `CN(c1nc(N)nc(-c2noc(-c3ccco3)n2)n1)c1cccc(Cl)c1F` [Example 106, N-(3-Chloro-2-fluoro-phenyl)-6-(5-furan-2-yl-[1,2,4]oxadiazol-3-yl)-N-methyl-[1,3,5]triazine-2,4-diamine], the IC50 came to 82 nM.

The values are drawn from patent US8895733B2 (Novartis AG, priority 2010, dated 2014).
